The test system of data set [1] is rgDENV2 NS5-G605V. The format is cell-based, dengue virus.
The target in data set [2] is ZIKV NS5 (RdRp) (Zika virus, UniProt A0A024B7W1). The class given is biochemical.
Data set [3] deals with MERS-CoV. Nature of the data set: microbe, parasite or virus in culture. The format is cell-based. The note with it: Middle East respiratory syndrome-related coronavirus, VeroE6/TMPRSS2.
Data set [4] relates to LACV. Kind of data set: organism not typed. The class given is cell-based. To be noted: MDBK.
Data set [5] relates to IAV H7N9. Nature of the data set: microbe, parasite or virus in culture. The class given is cell-based. The note with it: Influenza A virus, H7N9, MA104.
Data set [6] concerns rgDENV2 Wild type. Nature of the data set: microbe, parasite or virus in culture. The format is cell-based. To be noted: Dengue virus, BHK-21, 96 h.
The test system of data set [7] is SFTSV. Kind of data set: microbe, parasite or virus in culture. The class given is cell-based. To be noted: Severe fever with thrombocytopenia syndrome virus, MDCK.
In data set [8] the test system is CHIKV. Nature of the data set: microbe, parasite or virus in culture. The format is cell-based. The note with it: Chikungunya virus, BHK-21.
The conditions of data set [9]: mouse, in vivo.
For data set [10], the system named is ZIKV. Kind of data set: microbe, parasite or virus in culture. The class given is cell-based. The note with it: Zika virus, BHK-21, 72 h.
The subject of data set [11] is DENV2 AG-P10. Set-up: species or system AG129 mice. To be noted: mouse, in vivo.
In data set [12] the test system is DENV2. Nature of the data set: microbe, parasite or virus in culture. The class given is cell-based. To be noted: Dengue virus, DENV2, BHK-21, 96 h.
The test system of data set [13] is LCMV. Kind of data set: microbe, parasite or virus in culture. The format is cell-based. The note with it: Mammarenavirus choriomeningitidis.
For data set [14], the system named is SARS-CoV-2. Kind of data set: microbe, parasite or virus in culture. To be noted: Severe acute respiratory syndrome coronavirus 2, VeroE6/TMPRSS2. The format is cell-based.
The subject of data set [15] is RVFV. Nature of the data set: microbe, parasite or virus in culture. The class given is cell-based. To be noted: Rift Valley fever virus, MDCK.
The subject of data set [16] is V79 cells.
Data set [17] relates to DENV2. Nature of the data set: microbe, parasite or virus in culture. The format is cell-based. The note with it: Dengue virus, DENV2, Huh-7.
The test system of data set [18] is LPHV. Nature of the data set: microbe, parasite or virus in culture. The class given is cell-based. To be noted: Leopards Hill virus.
For data set [19], the system named is IAV H5N1. Kind of data set: microbe, parasite or virus in culture. The format is cell-based. The note with it: Influenza A virus, H5N1, A549.
The subject of data set [20] is YFV. Kind of data set: microbe, parasite or virus in culture. The format is cell-based. To be noted: Yellow fever virus, BHK-21, 72 h.
Data set [21] has as its system JUNV. Kind of data set: microbe, parasite or virus in culture. The note with it: Mammarenavirus juninense, HEK-293T. The class given is cell-based.

Several values for one entry are separate records, joined by “and”; a condition that tells them apart may be missing. Identical values can stand only once.

ZIKV NS5 (RdRp), sequence (A0A024B7W1 2521-3423 limits assumed): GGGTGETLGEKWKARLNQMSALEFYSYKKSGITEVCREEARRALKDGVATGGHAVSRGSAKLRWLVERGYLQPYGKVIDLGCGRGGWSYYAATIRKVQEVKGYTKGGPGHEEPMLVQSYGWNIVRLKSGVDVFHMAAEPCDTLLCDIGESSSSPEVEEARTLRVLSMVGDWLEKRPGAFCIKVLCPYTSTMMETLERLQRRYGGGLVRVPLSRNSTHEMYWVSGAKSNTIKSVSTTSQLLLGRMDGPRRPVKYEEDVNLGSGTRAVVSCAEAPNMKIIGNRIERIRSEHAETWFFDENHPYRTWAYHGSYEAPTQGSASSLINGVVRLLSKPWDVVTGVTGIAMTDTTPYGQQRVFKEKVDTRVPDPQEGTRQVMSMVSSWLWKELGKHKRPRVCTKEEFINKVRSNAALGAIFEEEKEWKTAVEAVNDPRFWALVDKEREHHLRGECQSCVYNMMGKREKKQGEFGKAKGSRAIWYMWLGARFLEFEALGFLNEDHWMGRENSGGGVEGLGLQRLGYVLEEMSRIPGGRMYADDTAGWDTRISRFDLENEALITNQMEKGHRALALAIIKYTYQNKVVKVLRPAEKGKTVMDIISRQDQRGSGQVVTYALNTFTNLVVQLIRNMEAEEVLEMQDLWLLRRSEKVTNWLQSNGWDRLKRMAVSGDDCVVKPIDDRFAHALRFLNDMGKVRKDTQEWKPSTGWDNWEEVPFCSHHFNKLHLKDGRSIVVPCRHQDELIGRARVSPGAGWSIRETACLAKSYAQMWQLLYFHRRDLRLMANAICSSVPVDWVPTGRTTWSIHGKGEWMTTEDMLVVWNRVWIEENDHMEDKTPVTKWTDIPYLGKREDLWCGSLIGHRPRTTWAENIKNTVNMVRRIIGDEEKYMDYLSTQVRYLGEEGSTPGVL

In data set [1], `NC(=O)c1ncn([C@@H]2O[C@H](CO)[C@@H](O)[C@H]2O)n1` [Ribavirin] registered a Fold change of 2.3.

In the case of `NC(=O)c1nc(F)c[nH]c1=O` [Favipiravir], in data set [1], the Fold change was found to be 2.2.

Turning to `O=c1ccn([C@@H]2O[C@H](COP(=O)(O)OP(=O)(O)OP(=O)(O)O)[C@@H](O)[C@H]2O)c(=S)[nH]1` [s2UTP, s2U 5′-triphosphate], in data set [2], the “RNA extension catalyzed by ZIKV RdRp” value is “inhibited RNA extension”.

On to `O=c1ccn([C@@H]2O[C@H](CO)[C@@H](O)[C@H]2O)c(=S)[nH]1` [s2U, 2-thiouridine], for which the EC50 was 2.3 µM in data set [3]; more than 100 µM in [4]; more than 100 µM in data set [5]; 0.86 ± 0.12 µM in [6]; more than 100 µM in data set [7]; 3.8 ± 0.12 µM in [8]. The EC50 was 3.8 ± 0.96 µM in [10]; 1.5 ± 0.1 µM in data set [12]; more than 100 µM in [13]; 2.3 ± 0.43 µM in data set [14]; more than 100 µM in data set [15]; less than 0.63 µM in [17]. The EC50 in data set [1] was 5.1 ± 0.69 µM; in [18] it was more than 100 µM; in data set [19], more than 100 µM; in [20], 3.2 ± 1.4 µM; in data set [21], more than 100 µM. Further, in [9], the body weight change result was “no BW loss”. For the same molecule, in [11], the median survival was 12.5 days and > 16 days and 12 days and 13 days. Besides, in [16], the “mutagenicity, HPRT (in vitro gene mutation test)” value was “does not have sufficient ability to introduce mutations”. Moreover, in data set [17], the 90% effect level (EC90) was put at 3.4 µM.

Broadly, the EC50 is the concentration giving half of the maximal effect. A lower EC50 goes with an effect from little substance. As usually defined, the EC90 is the concentration at which the effect reaches the 90% level. Low values mean an effect from little substance, high ones a need for much substance.
